Experiments:
PIK3CD (Human) [1] = target: PIK3CD (Human) (UniProt O00329); assay: Enzyme Assay
PIK3CG (human) = PIK3CG (human) (UniProt P48736); assay: Enzyme Assay
PIK3CB (Human) = PIK3CB (Human) (UniProt P42338); assay: Enzyme Assay
PIK3CD (Human) [2] = target: PIK3CD (Human) (UniProt O00329); assay: Cell-Based Assay; settings: raji
PIK3CA (human) = PIK3CA (human) (UniProt P42336); assay: Enzyme Assay
Sequence of PIK3CA (human) (P42336 whole entry, looked up): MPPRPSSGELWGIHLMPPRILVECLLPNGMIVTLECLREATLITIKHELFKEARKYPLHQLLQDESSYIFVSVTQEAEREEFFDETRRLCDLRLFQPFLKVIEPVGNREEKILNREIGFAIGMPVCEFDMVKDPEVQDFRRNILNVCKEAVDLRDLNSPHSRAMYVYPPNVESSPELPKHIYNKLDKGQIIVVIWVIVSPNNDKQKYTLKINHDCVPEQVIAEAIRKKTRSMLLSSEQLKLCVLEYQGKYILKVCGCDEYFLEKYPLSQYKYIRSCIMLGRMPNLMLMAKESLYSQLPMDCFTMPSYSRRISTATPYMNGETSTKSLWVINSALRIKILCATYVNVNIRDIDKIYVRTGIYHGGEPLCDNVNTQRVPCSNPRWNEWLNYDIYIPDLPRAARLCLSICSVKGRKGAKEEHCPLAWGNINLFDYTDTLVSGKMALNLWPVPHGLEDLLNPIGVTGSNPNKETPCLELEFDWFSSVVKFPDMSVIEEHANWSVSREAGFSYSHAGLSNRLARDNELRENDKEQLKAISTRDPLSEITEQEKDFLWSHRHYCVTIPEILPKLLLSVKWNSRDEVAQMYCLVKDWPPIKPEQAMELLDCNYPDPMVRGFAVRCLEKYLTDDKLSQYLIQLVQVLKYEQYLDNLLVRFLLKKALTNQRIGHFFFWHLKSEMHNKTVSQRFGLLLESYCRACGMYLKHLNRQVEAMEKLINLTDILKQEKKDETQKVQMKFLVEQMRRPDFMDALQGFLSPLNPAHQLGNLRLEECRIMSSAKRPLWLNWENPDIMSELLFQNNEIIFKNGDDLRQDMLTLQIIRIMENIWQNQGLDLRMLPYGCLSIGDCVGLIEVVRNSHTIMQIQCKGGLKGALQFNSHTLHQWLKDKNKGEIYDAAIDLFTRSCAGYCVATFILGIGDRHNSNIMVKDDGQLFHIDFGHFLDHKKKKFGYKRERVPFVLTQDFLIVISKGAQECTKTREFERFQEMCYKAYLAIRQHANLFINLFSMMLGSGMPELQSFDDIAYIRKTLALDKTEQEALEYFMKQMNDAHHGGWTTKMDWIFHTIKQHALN

Sequence of PIK3CB (Human) (P42338 whole entry, looked up): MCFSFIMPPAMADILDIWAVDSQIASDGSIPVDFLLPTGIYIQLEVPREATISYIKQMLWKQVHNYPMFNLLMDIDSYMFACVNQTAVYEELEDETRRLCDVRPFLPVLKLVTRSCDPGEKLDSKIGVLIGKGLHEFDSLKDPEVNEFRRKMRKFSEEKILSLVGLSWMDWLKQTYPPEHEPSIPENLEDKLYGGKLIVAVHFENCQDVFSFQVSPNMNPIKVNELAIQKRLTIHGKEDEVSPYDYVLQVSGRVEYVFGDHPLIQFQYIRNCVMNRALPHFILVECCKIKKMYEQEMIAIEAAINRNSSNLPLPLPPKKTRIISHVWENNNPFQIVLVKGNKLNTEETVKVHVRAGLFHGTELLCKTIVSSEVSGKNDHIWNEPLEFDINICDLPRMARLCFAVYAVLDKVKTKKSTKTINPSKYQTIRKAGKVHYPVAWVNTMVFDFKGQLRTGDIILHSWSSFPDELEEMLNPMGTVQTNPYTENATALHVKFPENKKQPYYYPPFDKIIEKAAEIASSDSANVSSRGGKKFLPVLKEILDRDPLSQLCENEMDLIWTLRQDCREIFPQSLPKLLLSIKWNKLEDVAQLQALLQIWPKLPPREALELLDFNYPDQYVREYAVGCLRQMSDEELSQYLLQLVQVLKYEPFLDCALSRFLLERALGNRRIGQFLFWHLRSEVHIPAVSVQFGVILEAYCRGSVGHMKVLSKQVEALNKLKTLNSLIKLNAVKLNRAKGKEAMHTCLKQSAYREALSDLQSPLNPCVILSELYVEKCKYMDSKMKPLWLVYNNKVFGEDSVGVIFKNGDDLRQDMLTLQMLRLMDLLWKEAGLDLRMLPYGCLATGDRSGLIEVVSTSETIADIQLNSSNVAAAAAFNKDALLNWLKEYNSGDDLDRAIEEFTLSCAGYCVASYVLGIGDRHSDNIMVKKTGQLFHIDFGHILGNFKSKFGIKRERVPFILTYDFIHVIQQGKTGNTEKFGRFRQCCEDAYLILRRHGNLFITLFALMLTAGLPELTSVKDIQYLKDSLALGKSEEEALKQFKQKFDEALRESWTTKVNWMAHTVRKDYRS
Sequence of PIK3CD (Human) (O00329 whole entry, looked up): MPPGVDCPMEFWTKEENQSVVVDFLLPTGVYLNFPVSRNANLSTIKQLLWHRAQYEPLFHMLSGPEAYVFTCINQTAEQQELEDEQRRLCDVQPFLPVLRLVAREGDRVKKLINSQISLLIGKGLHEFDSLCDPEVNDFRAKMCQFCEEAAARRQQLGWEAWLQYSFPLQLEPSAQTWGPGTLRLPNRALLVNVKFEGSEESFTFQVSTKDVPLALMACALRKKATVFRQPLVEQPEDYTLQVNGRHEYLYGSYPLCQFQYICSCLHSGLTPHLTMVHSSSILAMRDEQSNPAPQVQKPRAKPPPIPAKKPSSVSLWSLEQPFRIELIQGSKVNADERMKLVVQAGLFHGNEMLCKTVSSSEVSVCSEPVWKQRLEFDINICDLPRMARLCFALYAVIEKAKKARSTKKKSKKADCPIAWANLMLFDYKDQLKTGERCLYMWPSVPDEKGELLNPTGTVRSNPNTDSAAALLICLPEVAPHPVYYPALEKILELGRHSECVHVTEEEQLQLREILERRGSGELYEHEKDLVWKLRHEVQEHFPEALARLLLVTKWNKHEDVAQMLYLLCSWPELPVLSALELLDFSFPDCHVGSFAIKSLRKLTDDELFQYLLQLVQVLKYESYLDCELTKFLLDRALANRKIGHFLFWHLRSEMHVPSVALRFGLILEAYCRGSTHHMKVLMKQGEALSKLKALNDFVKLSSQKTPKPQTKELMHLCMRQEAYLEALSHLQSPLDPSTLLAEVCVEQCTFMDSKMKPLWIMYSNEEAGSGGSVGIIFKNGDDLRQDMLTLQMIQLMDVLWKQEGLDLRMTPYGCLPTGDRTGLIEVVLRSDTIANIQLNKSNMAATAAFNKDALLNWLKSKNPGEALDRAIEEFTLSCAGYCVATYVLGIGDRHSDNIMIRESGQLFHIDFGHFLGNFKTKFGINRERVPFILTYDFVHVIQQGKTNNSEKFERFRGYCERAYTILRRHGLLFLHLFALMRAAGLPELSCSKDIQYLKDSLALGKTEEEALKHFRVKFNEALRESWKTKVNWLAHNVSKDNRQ
Sequence of PIK3CG (human) (P48736 whole entry, looked up): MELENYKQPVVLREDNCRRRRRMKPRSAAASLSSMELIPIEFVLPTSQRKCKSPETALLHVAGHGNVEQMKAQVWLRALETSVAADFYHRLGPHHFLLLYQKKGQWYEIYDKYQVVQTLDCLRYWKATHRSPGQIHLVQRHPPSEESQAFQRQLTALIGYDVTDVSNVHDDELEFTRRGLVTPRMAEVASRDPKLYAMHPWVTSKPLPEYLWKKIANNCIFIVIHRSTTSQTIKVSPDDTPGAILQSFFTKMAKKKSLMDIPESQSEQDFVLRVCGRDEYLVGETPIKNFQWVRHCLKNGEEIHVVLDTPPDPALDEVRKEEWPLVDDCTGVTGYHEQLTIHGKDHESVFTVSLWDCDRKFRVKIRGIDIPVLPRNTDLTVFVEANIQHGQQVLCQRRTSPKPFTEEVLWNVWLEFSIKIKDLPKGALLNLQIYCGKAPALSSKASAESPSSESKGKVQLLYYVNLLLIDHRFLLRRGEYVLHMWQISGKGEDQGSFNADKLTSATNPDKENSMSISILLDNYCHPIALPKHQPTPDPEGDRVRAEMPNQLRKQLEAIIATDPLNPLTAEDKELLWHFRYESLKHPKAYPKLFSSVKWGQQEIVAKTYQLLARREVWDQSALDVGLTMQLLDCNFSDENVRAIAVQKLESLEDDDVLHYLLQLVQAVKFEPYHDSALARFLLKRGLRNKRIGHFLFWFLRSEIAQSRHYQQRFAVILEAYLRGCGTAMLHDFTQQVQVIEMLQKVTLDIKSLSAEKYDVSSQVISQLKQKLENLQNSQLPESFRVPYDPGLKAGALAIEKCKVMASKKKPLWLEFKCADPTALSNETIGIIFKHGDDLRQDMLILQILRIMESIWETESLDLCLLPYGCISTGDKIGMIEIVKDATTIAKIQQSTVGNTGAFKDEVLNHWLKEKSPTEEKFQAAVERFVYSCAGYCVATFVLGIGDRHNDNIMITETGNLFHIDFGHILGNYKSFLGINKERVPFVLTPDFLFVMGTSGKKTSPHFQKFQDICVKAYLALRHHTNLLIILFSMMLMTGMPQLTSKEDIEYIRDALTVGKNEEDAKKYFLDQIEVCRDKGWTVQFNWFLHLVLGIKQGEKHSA

SMILES	IC50 (PIK3CD (Human) [1]) [nM]	IC50 (PIK3CG (human)) [nM]	IC50 (PIK3CB (Human)) [nM]	IC50 (PIK3CD (Human) [2]) [nM]	IC50 (PIK3CA (human)) [nM]
Cc1c([C@H](C)NC(=O)c2c(N)nn3cccnc23)n(-c2ccccc2)c(=O)c2c(F)cccc12	100 to 1000	< 100	100 to 1000	< 100	–
CNCCn1c([C@H](C)NC(=O)c2c(N)nn3cccnc23)cc2cccc(Cl)c2c1=O	< 100	–	< 100	–	–
C[C@H](NC(=O)c1c(N)nn2cccnc12)c1c(Br)c2cccc(Cl)c2c(=O)n1-c1ccccc1	100 to 1000	< 100	–	< 100	–
CC[C@H](NC(=O)c1c(N)nn2cccnc12)c1cc2cccc(Cl)c2c(=O)n1-c1ccccc1	< 100	100 to 1000	< 100	< 100	–
C[C@H](NC(=O)c1c(N)nn2cccnc12)c1cc2cccc(Cl)c2c(=O)n1CC(O)CO (stereo partly drawn)	100 to 1000	100 to 1000	< 100	< 100	–
C[C@H](NC(=O)c1nc(-c2cnn(C)c2)cnc1N)c1cc2cccc(Cl)c2c(=O)n1-c1ccccc1	≥ 10000	–	–	100 to 1000	–
C[C@H](NC(=O)c1c(N)nn2cccnc12)c1cc2cccc(Cl)c2c(=O)n1CCNCCO	100 to 1000	–	< 100	–	–
Cc1ccn2nc(N)c(C(=O)N[C@@H](C)c3cc4cccc(Cl)c4c(=O)n3-c3ccccc3)c2n1	100 to 1000	100 to 1000	< 100	< 100	–
C[C@H](NC(=O)c1c(N)nn2cccnc12)c1cc2scc(Cl)c2c(=O)n1-c1ccccc1	100 to 1000	< 100	100 to 1000	< 100	–
C=CCn1c([C@H](C)NC(=O)c2c(N)nn3cccnc23)cc2cccc(Cl)c2c1=O	100 to 1000	100 to 1000	< 100	< 100	–
C[C@H](NC(=O)c1nccnc1N)c1cc2cccc(Cl)c2c(=O)n1-c1ccccc1	< 100	100 to 1000	100 to 1000	< 100	–
C[C@H](NC(=O)c1cnc2cccnn12)c1cc2cccc(Cl)c2c(=O)n1-c1ccccc1	100 to 1000	–	–	100 to 1000	–
C[C@H](NC(=O)c1c(N)nn2cccnc12)c1cc2cccc(-c3cncc(NS(C)(=O)=O)c3)c2c(=O)n1-c1ccccc1	100 to 1000	100 to 1000	≥ 10000	< 100	–
C[C@H](NC(=O)c1nc(-c2cscn2)cnc1N)c1cc2cccc(Cl)c2c(=O)n1-c1ccccc1	≥ 10000	100 to 1000	–	100 to 1000	–
C[C@H](NC(=O)c1c(N)nn2cccnc12)c1cc2cccc(Cl)c2c(=O)n1-c1cccc(F)c1	100 to 1000	< 100	100 to 1000	< 100	–
C[C@H](NC(=O)c1nc(-c2cccc(NS(=O)(=O)N(C)C)c2)cnc1N)c1cc2cccc(Cl)c2c(=O)n1-c1ccccc1	100 to 1000	< 100	100 to 1000	< 100	–
C=CC(=O)NCC#Cc1cccc2cc([C@H](C)NC(=O)c3c(N)nn4cccnc34)n(-c3ccccc3)c(=O)c12	100 to 1000	< 100	–	< 100	–
C[C@H](NC(=O)c1c(N)nn2cccnc12)c1c(C#N)c2cccc(F)c2c(=O)n1-c1ccccc1	100 to 1000	100 to 1000	100 to 1000	< 100	–
C[C@H](NC(=O)c1c(N)nn2cccnc12)c1cc2cccc(Cl)c2c(=O)n1-c1ccccc1	100 to 1000	–	100 to 1000	< 100	–
C[C@H](NC(=O)c1c(N)nn2cccnc12)c1cc2cccc(C#CCNC(=O)C3CC(=O)CC(=O)C3)c2c(=O)n1-c1ccccc1	100 to 1000	< 100	–	–	–
COc1ccc(-c2cnc(N)c(C(=O)N[C@@H](C)c3cc4cccc(Cl)c4c(=O)n3-c3ccccc3)n2)cc1NS(C)(=O)=O	–	< 100	100 to 1000	< 100	100 to 1000
CNc1cccc2cc([C@H](C)NC(=O)c3c(N)nn4cccnc34)n(-c3ccccc3)c(=O)c12	≥ 10000	–	≥ 10000	100 to 1000	–
